What is called logP is the decadic logarithm of the partition coefficient of the neutral form, usually between octanol and water. High values mean a more lipophilic compound, low ones a more hydrophilic compound. As usually defined, the chromatographic logP is a lipophilicity value derived from retention on a column. Read a low chromatographic logP as lower lipophilicity.

Marks after values point to notes of the source that are not given here.

A short description of the first series: Measurement of logP values by HPLC on reversed phase columns (EEC directive 79/831 Annex V.A8). It counts as physicochemical. The note with it: pH 2.3.
`CCCN(CCC#N)C(=O)c1cc(-c2ncnc(Nc3cccc(Cl)c3)n2)ccn1` [B182]: the “logP [b]” value was 3.13[b].

The same series, now with this note: pH 2.7.
Consider `CCCN(CCC)C(=O)c1cc(-c2ncnc(Nc3cccc(Cl)c3)n2)ccn1` [Example B124], for which the logP worked out at 3.89.
`Cc1ccc(Nc2ncnc(-c3ccnc(C(=O)NCC4CC4)c3)n2)cc1Cl` [B233] came in with a lipophilicity (logP) of 4.16.
On to `CCN(C)C(=O)c1cc(-c2ncnc(Nc3ccc(F)c(Cl)c3)n2)ccn1` [Example B207], for which the logP is on record as 2.75.
Regarding `CC(C)N(C)C(=O)c1cc(-c2ncnc(Nc3cccc(C#N)c3)n2)ccn1` [Example B296], the logP was 2.37.
Compound `CN(CC1CC1)C(=O)c1cc(-c2ncnc(Nc3ccc(F)c(F)c3)n2)ccn1` [Example B381] yielded a logP of 2.98.
The compound `CC(=O)N(c1ccccc1)c1ncnc(-c2ccnc(C(=S)N(C)CC3CC3)c2)n1` [Example B344, N-(4-{2-[(cyclopropylmethyl)(methyl)carbamothioyl]pyridin-4-yl}-1,3,5-triazin-2-yl)-N-phenylacetamide] yielded a chromatographic logP of 3.02.
Take `CN(CC(F)F)C(=O)c1cc(-c2ncnc(Nc3cccc(Cl)c3)n2)ccn1` [Example B373]: the logP was found to be 3.06.
As for `CN(CC(F)F)C(=O)c1cc(-c2ncnc(Nc3ccc(Cl)c(C(F)F)c3)n2)ccn1` [Example B392], the logP was 3.19. The logP values of the last two compounds are within 0.2 log units of each other.
In turn, `COCC(C1CC1)N(C)C(=O)c1cc(-c2ncnc(Nc3ccc(F)cc3)n2)ccn1` (centres unmarked) [Example B24] gave a logP of 2.8.
Consider `CCCN(C)C(=O)c1cc(-c2ncnc(Nc3ccc(Cl)c(C(F)F)c3)n2)ccn1` [Example B387], for which the logP is given as 3.23.
As for `CCCN(C)C(=S)c1cc(-c2ncnc(Nc3cccc(F)c3)n2)ccn1` [Example B13], the logP is 3.32. This logP and that of the compound before are within 0.2 log units of each other.
`CCCCN(C)C(=O)c1cc(-c2ncnc(Nc3cccc(Cl)c3)n2)ccn1` [Example B123] came in with a lipophilicity (logP) of 3.48. This logP and that of the compound before are within 0.2 log units of each other.
In the case of `CC(=O)Nc1cccc(Nc2ncnc(-c3ccnc(C(=O)N(C)CC4CC4)c3)n2)c1` [B306], the log partition coefficient (logP) was determined as 1.94.
As for `CCCCN(CCCC)C(=O)c1cc(-c2ncnc(Nc3cccc(Cl)c3)n2)ccn1` [B175], the log partition coefficient (logP) is on record as 4.75.
In turn, `CCCN(C)C(=S)c1cc(-c2ncnc(Nc3cccc(OC)c3)n2)ccn1` [Example B283] yielded a logP of 3.15.
`C=C(C)CN(CC)C(=O)c1cc(-c2ncnc(Nc3cccc(Cl)c3)n2)ccn1` [Example B156] displayed a log partition coefficient (logP) of 3.67.
The compound `CC(=O)Nc1cccc(Nc2ncnc(-c3ccnc(C(=O)N(C)CCC#N)c3)n2)c1` [B304] gave a logP of 2.08.
`CN(CC1CCCO1)C(=O)c1cc(-c2ccnc(Nc3ccnc(Cl)c3)n2)ccn1` (centres unmarked) [Example A15] had a logP of 1.99.
On to `CCCC#CCON=C(CC)c1cc(-c2ncnc(Nc3cccc(Cl)c3)n2)ccn1` (mixture of isomers) [Example B46], for which the lipophilicity (logP) stood at 5.81.
`CC(C)N(C)C(=O)c1cc(-c2ncnc(Nc3cccc(OC(F)F)c3)n2)ccn1` [Example B302] registered a lipophilicity (logP) of 2.78.
In turn, `COCC(=O)ON=C(N)c1cc(-c2ncnc(Nc3cccc(Cl)c3)n2)ccn1` [Example B104, 4-{4-[(3-chlorophenyl)amino]-1,3,5-triazin-2-yl}-N′-[(methoxyacetyl)oxy]pyridine-2-carboximidamide] registered a chromatographic logP of 2.92.
`O=C(NO)c1cc(-c2ncnc(Nc3cccc(Cl)c3)n2)ccn1` [Example B185, 4-{4-[(3-chlorophenyl)amino]-1,3,5-triazin-2-yl}-N-hydroxypyridine-2-carboxamide]: the chromatographic logP worked out at 2.13.
Regarding `CN(C)C(=O)c1cc(-c2ncnc(Nc3ccccc3)n2)ccn1` [Example B314], the log partition coefficient (logP) amounted to 1.95.
As to `COC(C)C(C)N(C)C(=O)c1cc(-c2ncnc(Nc3cccc(Cl)c3)n2)ccn1` (centres unmarked) [Example B189], the logP was 3.15.
Regarding `CCCN(C)C(=S)c1cc(-c2ncnc(Nc3cccc(COC)c3)n2)ccn1` [Example B250], the lipophilicity (logP) was found to be 3.05.
Same read-out and setting: the figure for `CCNC(=O)c1cc(-c2ncnc(Nc3cccc(Cl)c3)n2)ccn1` [B92] is 3.17.
On to `CC(C)=CC(=O)O/N=C(/N)c1cc(-c2ncnc(Nc3cccc(Cl)c3)n2)ccn1` [Example B111], for which the logP came to 3.92.
As for `CCN(CC)C(=O)c1cccc(-c2ccnc(Nc3ccnc(Cl)c3)n2)n1` [Example A33], the logP is recorded as 2.6.
Take `CCCNC(=O)c1cc(-c2ncnc(Nc3cccc(F)c3)n2)ccn1` [B323]: the logP stood at 3.17.
The compound `C=CCON=C(CC)c1cc(-c2ncnc(Nc3cccc(Cl)c3)n2)ccn1` (mixture of isomers) [Example B41] gave a logP of 5.14.
For `CCC(CC#N)NC(=O)c1cc(-c2ncnc(Nc3cccc(Cl)c3)n2)ccn1` (centres unmarked) [Example B95], the lipophilicity (logP) stood at 3.35.
On the same count and under the same terms, the figure for `CC#CCON=C(C)c1cc(-c2ncnc(Nc3cccc(Cl)c3)n2)ccn1` (mixture of isomers) [Example B36] is 4.41; for `COc1cccc(Nc2ncnc(-c3ccnc(C(=O)N(C)C(C)C)c3)n2)c1` [Example B279] it is 2.51.
`CCN(C)C(=O)c1cc(-c2ncnc(Nc3cccc(F)c3)n2)ccn1` [Example B7] showed a logP of 2.4.
Still for that read-out and setting: the figure for `CC1CC(C)CN(C(=O)c2cc(-c3ncnc(Nc4cccc(Cl)c4)n3)ccn2)C1` (centres unmarked) [Example B155] is 3.96.
Still for that read-out and setting: the figure for `CC(=O)O/N=C(/N)c1cc(-c2ncnc(Nc3cccc(Cl)c3)n2)ccn1` [B109] is 2.95; for `COCc1cccc(Nc2ncnc(-c3ccnc(C(=O)N(C)CCC#N)c3)n2)c1` [Example B239] it is 1.94.
Regarding `CCN(C)C(=O)c1cc(-c2ccnc(Nc3ccnc(C(F)(F)F)c3)n2)ccn1` [Example A18], the logP was 2.22.
As to `CCC(COC)NC(=O)c1cc(-c2ncnc(Nc3cccc(SC)c3)n2)ccn1` (centres unmarked) [B216], the logP is 3.69.
Same read-out and setting: the figure for `COC(=O)c1cc(-c2ncnc(Nc3ccc(Cl)c(OC)c3)n2)ccn1` [B417] is 2.80; for `O=C(c1cc(-c2ccnc(Nc3ccnc(Cl)c3)n2)ccn1)N1CCCC(CO)C1` (centres unmarked) [Example A9] it is 1.69.
In turn, `CCN(CC)C(=S)c1cc(-c2ncnc(Nc3ccc(F)c(C(F)F)c3)n2)ccn1` [Example B327] registered a logP of 3.37.
The same measure, in the same setting: the figure for `COCC(C)NC(=O)c1cc(-c2ncnc(Nc3cccc(Cl)c3)n2)ccn1` (centres unmarked) [B51] is 3.21; for `COCC(C1CC1)N(C)C(=O)c1cc(-c2ncnc(Nc3ccc(F)c(Cl)c3)n2)ccn1` (centres unmarked) [B210] it is 3.33; for `CN(C)C(=O)c1cc(-c2ncnc(Nc3cccc(Cl)c3)n2)ccn1` [Example B150] it is 2.4.
Compound `O=C(c1cc(Nc2nccc(-c3ccnc(C(=O)N4CCCC4)c3)n2)ccn1)N1CCCC1` [Example A8] displayed a logP of 1.37.
Compound `O=C(c1cc(-c2ncnc(Nc3cccc(Cl)c3)n2)ccn1)N1CCCC(O)C1` (centres unmarked) [Example B140] showed a logP of 2.2.
In turn, `CCON(C)C(=O)c1cc(-c2ncnc(Nc3cccc(C(F)F)c3)n2)ccn1` [B415] yielded a lipophilicity (logP) of 2.57.
Turning to `O=C(O)c1cc(-c2ncnc(Nc3cccc(C(F)F)c3)n2)ccn1` [B407], the lipophilicity (logP) came to 1.98.
On to `CCCCN(CC)C(=O)c1cc(-c2ncnc(Nc3cccc(Cl)c3)n2)ccn1` [Example B162], for which the logP came out at 3.87.
For the compound `CN(C)C(=O)c1cc(-c2ncnc(Nc3ccc(F)c(Cl)c3)n2)ccn1` [Example B205], the lipophilicity (logP) turned out to be 2.47.
Regarding `CC(C)N(CCO)C(=O)c1cc(-c2ncnc(Nc3cccc(Cl)c3)n2)ccn1` [Example B180], the logP amounted to 2.45.
With `CCN(CC)C(=S)c1cc(-c2ncnc(Nc3cccc(OC)c3)n2)ccn1` [Example B282], the log partition coefficient (logP) was 3.15.
Consider `CC1CCCCN1C(=O)c1cc(-c2ncnc(Nc3cccc(Cl)c3)n2)ccn1` (centres unmarked) [Example B142], for which the lipophilicity (logP) is on record as 3.39.
As to `O=C(c1cc(-c2ncnc(Nc3cccc(Cl)c3)n2)ccn1)N1CCSCC1` [B176], the logP is 2.98.
With `CCC(C)N(C)C(=O)c1cc(-c2ccnc(Nc3ccnc(Cl)c3)n2)ccn1` (centres unmarked) [Example A29], the logP is 2.47.
`NC(=S)c1cc(-c2ncnc(Nc3ccc(F)cc3)n2)ccn1` [B322] showed a logP of 2.47.
Compound `CCON=C(C)c1cc(-c2ncnc(Nc3cccc(Cl)c3)n2)ccn1` (mixture of isomers) [B31] showed a logP of 4.7.
The compound `CC(C)CCN(C)C(=O)c1cc(-c2ncnc(Nc3cccc(Cl)c3)n2)ccn1` [Example B146] gave a logP of 3.87.
As to `CCOC(=N)c1cc(-c2ncnc(Nc3cccc(Cl)c3)n2)ccn1` [Example B102, ethyl 4-{4-[(3-chlorophenyl)amino]-1,3,5-triazin-2-yl}pyridine-2-carboximidoate], the chromatographic logP came out at 2.08.
`CCCC(C)NC(=O)c1cc(-c2ncnc(Nc3ccc(F)c(Cl)c3)n2)ccn1` (centres unmarked) [B200] came in with a logP of 4.64.
`CO/N=C(\C)c1cc(-c2ncnc(Nc3cccc(Cl)c3)n2)ccn1` [Example B27, N-(3-chlorophenyl)-4-{2-[(1E)-N-methoxyethanimidoyl]pyridin-4-yl}-1,3,5-triazin-2-amine]: the chromatographic logP turned out to be 4.23.
In turn, `COCCNC(=O)c1cc(-c2ncnc(Nc3ccc(C)c(Cl)c3)n2)ccn1` [Example B227] yielded a log partition coefficient (logP) of 3.48.
`COC[C@H]1CCCN1C(=O)c1cc(-c2ncnc(Nc3cccc(Cl)c3)n2)ccn1` [Example B134] registered a logP of 3.08.
In turn, `CCN(C)C(=S)c1cc(-c2ncnc(Nc3cccc(C(F)(F)F)c3)n2)ccn1` [Example B257] registered a logP of 3.41.
Compound `CCCN(C)C(=O)c1cc(-c2ncnc(Nc3cccc(Cl)c3)n2)ccn1` [Example B132] returned a logP of 3.06.
In the case of `Cc1ccc(Nc2ncnc(-c3ccnc(C(=O)NC4CCC4)c3)n2)cc1Cl` [B234], the lipophilicity (logP) was 4.29.
Still for that read-out and setting: the figure for `O=C(NC1CCC1)c1cc(-c2ncnc(Nc3cccc(Cl)c3)n2)ccn1` [Example B113] is 3.89; for `CC(C)CN(C)C(=O)c1cc(-c2ncnc(Nc3ccc(F)c(Cl)c3)n2)ccn1` [Example B206] it is 3.46.

Staying with this series, now noted: pH 7.8.
For the compound `COC(=O)c1cc(-c2ncnc(Nc3ccc(OC)c(OC)c3)n2)ccn1` [B422], the log partition coefficient (logP) is 2.02^[c].

(Values after patent US20110218188A1, “SUBSTITUTED (PYRIDYL)-AZINYLAMINE DERIVATIVES AS FUNGICIDES” (priority 2008, published 2011).)
